According to US8513251B2, “Pyridazinone compounds” (Takeda Pharmaceutical Company Limited, priority 2009, dated 2013):

SMILES | melting point [°C]
O=c1ccn(-c2cccc(C(F)(F)F)c2)nc1-c1cc(C(F)(F)F)nn1-c1ccccc1 [Example 70, 3-[1-Phenyl-3-(trifluoromethyl)-1H-pyrazol-5-yl]-1-[3-(trifluoromethyl)phenyl]pyridazin-4(1H)-one] | 190 to 191
O=c1ccn(-c2ccccc2C(F)(F)F)nc1-c1ccnn1-c1ccccc1 [Example 22, 3-(1-Phenyl-1H-pyrazol-5-yl)-1-[2-(trifluoromethyl)phenyl]pyridazin-4(1H)-one] | 145 to 146
O=c1ccn(-c2cccc(C(F)(F)F)c2)nc1-c1nncn1-c1ccccc1 [Example 40, 3-(4-Phenyl-4H-1,2,4-triazol-3-yl)-1-[3-(trifluoromethyl)phenyl]pyridazin-4(1H)-one] | 103 to 104
O=c1ccn(-c2cccc(C(F)(F)F)c2)nc1-c1ccnn1CC1CC1 [Example 152, 3-[1-(Cyclopropylmethyl)-1H-pyrazol-5-yl]-1-[3-(trifluoromethyl)phenyl]pyridazin-4(1H)-one] | 155 to 157
O=c1ccn(-c2cccc(C(F)(F)F)c2)nc1-n1ccnc1-c1ccccc1 [Example 81, 3-(2-Phenyl-1H-imidazol-1-yl)-1-[3-(trifluoromethyl)phenyl]pyridazin-4(1H)-one] | 204 to 205
COc1cn(-c2ccc(O)cc2F)nc(-c2ccnn2-c2ccccc2)c1=O [Example 91, 1-(2-Fluoro-4-hydroxyphenyl)-5-methoxy-3-(1-phenyl-1H-pyrazol-5-yl)pyridazin-4(1H)-one] | 223 to 224
O=c1ccn(-c2cccc(C(F)(F)F)c2)nc1-c1cn(C(c2ccccc2)(c2ccccc2)c2ccccc2)nc1-c1ccccc1 [Example 73, 3-(3-Phenyl-1-trityl-1H-pyrazol-4-yl)-1-[3-(trifluoromethyl)phenyl]pyridazin-4(1H)-one] | 216 to 218
COc1cn(-c2cccnc2)nc(-c2ccnn2-c2ccccc2)c1=O [Example 173, 5-Methoxy-3-(1-phenyl-1H-pyrazol-5-yl)-1-pyridin-3-ylpyridazin-4(1H)-one] | 210 to 212
O=c1ccn(-c2ccc(OC(F)F)cc2)nc1-c1ccnn1-c1ccccc1 [Example 28, 1-[4-(Difluoromethoxy)phenyl]-3-(1-phenyl-1H-pyrazol-5-yl)pyridazin-4(1H)-one] | 175 to 176
COc1cn(-c2ccc(I)cc2F)nc(-c2ccnn2-c2ccccc2)c1=O [Example 55, 1-(2-Fluoro-4-iodophenyl)-5-methoxy-3-(1-phenyl-1H-pyrazol-5-yl)pyridazin-4(1H)-one] | 194 to 196
Cc1ccc(-n2ccc(=O)c(-c3ccnn3-c3ccccc3)n2)cc1 [Example 25, 1-(4-Methylphenyl)-3-(1-phenyl-1H-pyrazol-5-yl)pyridazin-4(1H)-one] | 182 to 183
O=c1ccn(-c2cccc(C(F)(F)F)c2)nc1-c1ccnn1-c1cccc(F)c1 [Example 6, 3-[1-(3-Fluorophenyl)-1H-pyrazol-5-yl]-1-[3-(trifluoromethyl)phenyl]pyridazin-4(1H)-one] | 104 to 105
O=c1ccn(-c2cccc(C(F)(F)F)c2)nc1-c1conc1-c1ccccc1 [Example 79, 3-(3-Phenylisoxazol-4-yl)-1-[3-(trifluoromethyl)phenyl]pyridazin-4(1H)-one] | 217 to 219
Cc1cccc(-n2ccc(=O)c(-c3ccnn3-c3ccccc3)n2)c1 [Example 20, 1-(3-Methylphenyl)-3-(1-phenyl-1H-pyrazol-5-yl)pyridazin-4(1H)-one] | 115 to 116
O=c1ccn(-c2cccc(Cl)c2)nc1-c1ccnn1-c1ccccc1 [Example 12, 1-(3-Chlorophenyl)-3-(1-phenyl-1H-pyrazol-5-yl)pyridazin-4(1H)-one] | 146 to 147
O=c1cc(O)n(-c2cccc(C(F)(F)F)c2)nc1-c1ccnn1-c1ccccc1 [Example 69, 6-Hydroxy-3-(1-phenyl-1H-pyrazol-5-yl)-1-[3-(trifluoromethyl)phenyl]pyridazin-4(1H)-one] | 241 to 243
COc1cn(-c2cc3c(cc2F)OC(F)(F)O3)nc(-c2ccnn2-c2ccccc2)c1=O [Example 95, 5-Methoxy-3-(1-phenyl-1H-pyrazol-5-yl)-1-(2,2,6-trifluoro-1,3-benzodioxol-5-yl)pyridazin-4(1H)-one] | 200 to 202
COc1cc(=O)c(-c2ccnn2-c2ccccc2)nn1-c1cccc(C(F)(F)F)c1 [Example 193, 6-Methoxy-3-(1-phenyl-1H-pyrazol-5-yl)-1-[3-(trifluoromethyl)phenyl]pyridazin-4(1H)-one] | 139 to 141
O=c1ccn(-c2cccc(C(F)(F)F)c2)nc1-c1ccnn1-c1ccccc1Cl [Example 8, 3-[1-(2-Chlorophenyl)-1H-pyrazol-5-yl]-1-[3-(trifluoromethyl)phenyl]pyridazin-4(1H)-one] | 139 to 140
COc1cn(-c2ccc(OCc3ccccc3)cc2F)nc(-c2ccnn2-c2ccccc2)c1=O [Example 68, 1-[4-(Benzyloxy)-2-fluorophenyl]-5-methoxy-3-(1-phenyl-1H-pyrazol-5-yl)pyridazin-4(1H)-one] | 181 to 183

SMILES | melting point [°C]
O=c1c(O)cn(-c2cccc(C(F)(F)F)c2)nc1-c1ccnn1-c1ccccc1 [Example 58, 5-Hydroxy-3-(1-phenyl-1H-pyrazol-5-yl)-1-[3-(trifluoromethyl)phenyl]pyridazin-4(1H)-one] | 246 to 248
O=c1c(OCC2CC2)cn(-c2cccc(C(F)(F)F)c2)nc1-c1ccnn1-c1ccccc1 [Example 61, 5-(Cyclopropylmethoxy)-3-(1-phenyl-1H-pyrazol-5-yl)-1-[3-(trifluoromethyl)phenyl]pyridazin-4(1H)-one] | 72 to 78
Cn1cc(-c2nn(-c3cccc(C(F)(F)F)c3)ccc2=O)c(-c2ccccc2)n1 [Example 76, 3-(1-Methyl-3-phenyl-1H-pyrazol-4-yl)-1-[3-(trifluoromethyl)phenyl]pyridazin-4(1H)-one] | 181 to 183
Cc1cnn(-c2ccccc2)c1-c1nn(-c2cccc(C(F)(F)F)c2)ccc1=O [Example 71, 3-(4-Methyl-1-phenyl-1H-pyrazol-5-yl)-1-[3-(trifluoromethyl)phenyl]pyridazin-4(1H)-one] | 208 to 211
Cc1cc(-c2nn(-c3cccc(C(F)(F)F)c3)ccc2=O)n(-c2ccccc2)n1 [Example 51, 3-(3-Methyl-1-phenyl-1H-pyrazol-5-yl)-1-[3-(trifluoromethyl)phenyl]pyridazin-4(1H)-one] | 167 to 168
COc1cccc(-n2ccc(=O)c(-c3ccnn3-c3ccccc3)n2)c1 [Example 21, 1-(3-Methoxyphenyl)-3-(1-phenyl-1H-pyrazol-5-yl)pyridazin-4(1H)-one] | 110 to 111
O=c1ccn(-c2cccc(C(F)(F)F)c2)nc1-c1c[nH]nc1-c1ccccc1 [Example 74, 3-(3-Phenyl-1H-pyrazol-4-yl)-1-[3-(trifluoromethyl)phenyl]pyridazin-4(1H)-one] | 206 to 208
Cn1cnc(-c2ccccc2)c1-c1nn(-c2cccc(C(F)(F)F)c2)ccc1=O [Example 84, 3-(1-Methyl-4-phenyl-1H-imidazol-5-yl)-1-[3-(trifluoromethyl)phenyl]pyridazin-4(1H)-one] | 214 to 216
Cc1cccc(-n2nccc2-c2nn(-c3cccc(C(F)(F)F)c3)ccc2=O)c1 [Example 5, 3-[1-(3-Methylphenyl)-1H-pyrazol-5-yl]-1-[3-(trifluoromethyl)phenyl]pyridazin-4(1H)-one] | 142 to 143
COc1cn(-c2ccc(N3CC4(CC4)OC3=O)cc2F)nc(-c2ccnn2-c2ccccc2)c1=O [Example 191, 6-{3-Fluoro-4-[5-methoxy-4-oxo-3-(1-phenyl-1H-pyrazol-5-yl)pyridazin-1(4H)-yl]phenyl}-4-oxa-6-azaspiro[2.4]heptan-5-one] | 200 to 201
O=c1ccn(-c2cccc(C(F)(F)F)c2)nc1-c1ccnn1-c1ccc(F)cc1 [Example 2, 3-[1-(4-Fluorophenyl)-1H-pyrazol-5-yl]-1-[3-(trifluoromethyl)phenyl]pyridazin-4(1H)-one] | 130 to 131
Cc1ccc(-n2nccc2-c2nn(-c3cccc(C(F)(F)F)c3)ccc2=O)cc1 [Example 1, 3-[1-(4-Methylphenyl)-1H-pyrazol-5-yl]-1-[3-(trifluoromethyl)phenyl]pyridazin-4(1H)-one] | 164 to 165
COc1cn(-c2ccc(C(F)(F)F)cc2F)nc(-c2ccnn2-c2ccccc2)c1=O [Example 56, 1-[2-Fluoro-4-(trifluoromethyl)phenyl]-5-methoxy-3-(1-phenyl-1H-pyrazol-5-yl)pyridazin-4(1H)-one] | 169 to 171
O=c1ccn(-c2cccc3c2OC(F)(F)O3)nc1-c1ccnn1-c1ccccc1 [Example 142, 1-(2,2-Difluoro-1,3-benzodioxol-4-yl)-3-(1-phenyl-1H-pyrazol-5-yl)pyridazin-4(1H)-one] | 105 to 107
Cc1cn(-c2cccc(C(F)(F)F)c2)nc(-c2ccnn2-c2ccccc2)c1=O [Example 50, 5-Methyl-3-(1-phenyl-1H-pyrazol-5-yl)-1-[3-(trifluoromethyl)phenyl]pyridazin-4(1H)-one] | 147 to 150
COc1ccccc1-n1nccc1-c1nn(-c2cccc(C(F)(F)F)c2)ccc1=O [Example 9, 3-[1-(2-Methoxyphenyl)-1H-pyrazol-5-yl]-1-[3-(trifluoromethyl)phenyl]pyridazin-4(1H)-one] | 146 to 147
O=c1ccn(-c2ccc(C(F)(F)F)cc2)nc1-c1ccnn1-c1ccccc1 [Example 11, 3-(1-Phenyl-1H-pyrazol-5-yl)-1-[4-(trifluoromethyl)phenyl]pyridazin-4(1H)-one] | 237 to 238
O=c1ccn(-c2cccc(OC(F)F)c2)nc1-c1ccnn1-c1ccccc1 [Example 27, 1-[3-(Difluoromethoxy)phenyl]-3-(1-phenyl-1H-pyrazol-5-yl)pyridazin-4(1H)-one] | 159 to 160
Cc1ccccc1-n1nccc1-c1nn(-c2cccc(C(F)(F)F)c2)ccc1=O [Example 7, 3-[1-(2-Methylphenyl)-1H-pyrazol-5-yl]-1-[3-(trifluoromethyl)phenyl]pyridazin-4(1H)-one] | 126 to 127
